The source of these data is US20070142437A1, “CHEMICAL COMPOUNDS” (priority 2005, published 2007).

This test deals with HUVEC cells. The experiment in a line: Human Umbilical Vein Endothelial Cell (HUVEC) proliferation assay (BrdU incorporation). The conditions noted are these: growth stimulated with VEGF, 72 hrs, read-out: Inhibition of HUVEC proliferation IC50. Type of test: cell-based. How it is done: Human Umbilical Vein Endothelial Cell (HUVEC) Proliferation Assay (BrdU Incorporation) Materials
HUVEC cells and EGM-MV (Endothelial cell growth medium—microvascular) were purchased from Clonetics (San Diego, Calif.). VEGF and bFGF were purchased from R&D Systems (Minneapolis, Minn.). Anti-BrdU antibody was obtained from Chemicon International (Temecula, Calif.).
HUVECs were routinely maintained in EGM-MV medium and were used within passage 7. HUVECs were plated at a density of 2500 cells/well in M199 medium containing 5% FBS (Hyclone) in type I collagen coated plate (Becton Dickinson). The plate was incubated at 37° C. overnight. The medium was removed by aspiration, and test compounds were added to each well in a volume of 0.1 ml/well in serum-free M199 medium. Compound concentrations ranged from 1.5 nM to 30 micromolar. The plate was incubated for 30 min at 37° C. Another 0.1 ml of serum-free M199 medium containing BSA and VEGF (or bFGF) was added to give a final concentration of 0.1% BSA and 10 ng/ml VEGF (0.3 ng/ml bFGF). The plate was incubated at 37° C. for 72 hrs. BrdU was added to each well after the first 48 hrs to give a concentration of 10 micromolar. The colorimetric ELISA assay was performed according to manufacturer's (Roche Molecular Sciences) instructions, with detection by absorbance reading at 450 nm. Results were plotted as concentration of test compound vs. absorbance to give an IC50 value for inhibition of BrdU incorporation.
Background: Uptake of a labelled nucleoside into DNA is a usual measure of proliferation.

Some results are limits rather than exact numbers.

Take `CCS(=O)(=O)c1ccc(OC)c(Nc2ncc(-c3cccc(-c4ccccn4)c3)o2)c1` [Example 178, N-[5-(ethylsulfonyl)-2-methoxyphenyl]-5-(3-pyridin-2-ylphenyl)-1,3-oxazol-2-amine]: the IC50 was less than 500 nM. `CCS(=O)(=O)c1ccc(OC)c(Nc2ncc(-c3cccc(-c4cncn4C)c3)o2)c1` [Example 179, N-[5-(ethylsulfonyl)-2-methoxyphenyl]-5-[3-(1-methyl-1H-imidazol-5-yl)phenyl]-1,3-oxazol-2-amine]: the IC50 was less than 500 nM. Consider `CCS(=O)(=O)c1ccc(OC)c(Nc2ncc(-c3cccc(-c4ccccc4)c3)o2)c1` [Example 180, 5-(1,1′-biphenyl-3-yl)-N-[5-(ethylsulfonyl)-2-methoxyphenyl]-1,3-oxazol-2-amine], for which the IC50 was less than 500 nM. As to `CCS(=O)(=O)c1ccc(OC)c(Nc2ncc(-c3cccc(-c4ccco4)c3)o2)c1` [Example 181, N-[5-(ethylsulfonyl)-2-methoxyphenyl]-5-[3-(2-furyl)phenyl]-1,3-oxazol-2-amine], the IC50 was less than 500 nM. As to `CCS(=O)(=O)c1ccc(OC)c(Nc2ncc(-c3cccc(-c4ccc(F)cc4)c3)o2)c1` [Example 183, N-[5-(ethylsulfonyl)-2-methoxyphenyl]-5-(4′-fluoro-1,1′-biphenyl-3-yl)-1,3-oxazol-2-amine], the IC50 is less than 500 nM. On to `CCS(=O)(=O)c1ccc(OC)c(Nc2ncc(-c3cccc(-c4ccc5c(c4)CCO5)c3)o2)c1` [Example 184, 5-[3-(2,3-dihydro-1-benzofuran-5-yl)phenyl]-N-[5-(ethylsulfonyl)-2-methoxyphenyl]-1,3-oxazol-2-amine], for which the IC50 was less than 500 nM.

Consider `COc1ccc(S(N)(=O)=O)cc1Nc1ncc(-c2cccc(-c3ccccc3)c2)o1` [Example 187, 3-{[5-(1,1′-biphenyl-3-yl)-1,3-oxazol-2-yl]amino}-4-methoxybenzenesulfonamide], for which the IC50 was less than 500 nM. As to `CNS(=O)(=O)c1ccc(OC)c(Nc2ncc(-c3cccc(-c4ccc(F)cc4)c3)o2)c1` [Example 189, 3-{[5-(4′-fluoro-1,1′-biphenyl-3-yl)-1,3-oxazol-2-yl]amino}-4-methoxy-N-methylbenzenesulfonamide], the IC50 is less than 500 nM. `CCC(CC)S(=O)(=O)c1ccc(OC)c(Nc2ncc(-c3cccc(-c4ccccn4)c3)o2)c1` [Example 192, N-{5-[(1-ethylpropyl)sulfonyl]-2-methoxyphenyl}-5-(3-pyridin-2-ylphenyl)-1,3-oxazol-2-amine]: the IC50 is less than 1000 nM. In the case of `COc1ccc(S(=O)(=O)C(C)C)cc1Nc1ncc(-c2cccc(-c3ccccn3)c2)o1` [Example 193, N-[5-(isopropylsulfonyl)-2-methoxyphenyl]-5-(3-pyridin-2-ylphenyl)-1,3-oxazol-2-amine] it was less than 1000 nM; in that of `COc1ccc(S(=O)(=O)C(C)c2ccncc2)cc1Nc1ncc(-c2cccc(-c3ccccc3)c2)o1` (stereo not shown) [Example 196, 5-(1,1′-biphenyl-3-yl)-N-{2-methoxy-5-[(1-pyridin-4-ylethyl)sulfonyl]phenyl}-1,3-oxazol-2-amine], less than 500 nM; in that of `COc1cc(Nc2ncc(-c3cccc(-c4ccccc4)c3)o2)cc(OC)c1OC` [Example 199, 5-(1,1′-biphenyl-3-yl)-N-(3,4,5-trimethoxyphenyl)-1,3-oxazol-2-amine], less than 500 nM. In the case of `CCS(=O)(=O)c1ccc(OC)c(Nc2ncc(-c3cccc(-c4cccc(F)c4)c3)o2)c1` [Example 207, N-[5-(ethylsulfonyl)-2-methoxyphenyl]-5-(3′-fluoro-1,1′-biphenyl-3-yl)-1,3-oxazol-2-amine] it was less than 500 nM; in that of `COc1ccc(S(N)(=O)=O)cc1Nc1ncc(-c2cccc(-c3cccc(F)c3)c2)o1` [Example 214, 3-{[5-(3′-fluoro-1,1′-biphenyl-3-yl)-1,3-oxazol-2-yl]amino}-4-methoxybenzenesulfonamide], less than 1000 nM.

`CCS(=O)(=O)c1ccc(OC)c(Nc2ncc(-c3cccc(-c4ccccc4F)c3)o2)c1` [Example 215, N-[5-(ethylsulfonyl)-2-methoxyphenyl]-5-(2′-fluoro-1,1′-biphenyl-3-yl)-1,3-oxazol-2-amine]: the IC50 was less than 500 nM. Turning to `CCS(=O)(=O)c1ccc(OC)c(Nc2ncc(-c3cccc(-c4ccccc4Cl)c3)o2)c1` [Example 216, 5-(2′-chloro-1,1′-biphenyl-3-yl)-N-[5-(ethylsulfonyl)-2-methoxyphenyl]-1,3-oxazol-2-amine], the IC50 was less than 500 nM. `CCNS(=O)(=O)c1ccc(OC)c(Nc2ncc(-c3cccc(-c4ccccn4)c3)o2)c1` [Example 218, N-ethyl-4-methoxy-3-{[5-(3-pyridin-2-ylphenyl)-1,3-oxazol-2-yl]amino}benzenesulfonamide]: the IC50 is less than 500 nM.

In the case of `COc1ccc(S(=O)(=O)NCC2CC2)cc1Nc1ncc(-c2cccc(-c3ccccn3)c2)o1` [Example 221, N-(cyclopropylmethyl)-4-methoxy-3-{[5-(3-pyridin-2-ylphenyl)-1,3-oxazol-2-yl]amino}benzenesulfonamide], the IC50 is less than 1000 nM.

Consider `COc1ccc(S(=O)(=O)NC(C)C)cc1Nc1ncc(-c2cccc(-c3cccnc3)c2)o1` [Example 223, N-isopropyl-4-methoxy-3-{[5-(3-pyridin-3-ylphenyl)-1,3-oxazol-2-yl]amino}benzenesulfonamide], for which the IC50 is less than 500 nM. Turning to `COc1ccc(S(=O)(=O)NC(C)C)cc1Nc1ncc(-c2cccc(-c3ccccc3)c2)o1` [Example 224, 3-{[5-(1,1′-biphenyl-3-yl)-1,3-oxazoI-2-yl]amino}-N-isopropyl-4-methoxybenzenesulfonamide], the IC50 is less than 500 nM. On to `COc1ccc(S(=O)(=O)N(C)C)cc1Nc1ncc(-c2cccc(-c3ccccc3)c2)o1` [Example 225, 3-{[5-(1,1′-biphenyl-3-yl)-1,3-oxazol-2-yl]amino}-4-methoxy-N,N-dimethylbenzenesulfonamide], for which the IC50 is less than 500 nM.

For the molecule `COc1ccc(S(=O)(=O)NC2CC2)cc1Nc1ncc(-c2cccc(-c3ccccc3)c2)o1` [Example 226, 3-{[5-(1,1′-biphenyl-3-yl)-1,3-oxazol-2-yl]amino}-N-cyclopropyl-4-methoxybenzenesulfonamide], the IC50 was less than 500 nM. Regarding `CCCCNS(=O)(=O)c1ccc(OC)c(Nc2ncc(-c3cccc(-c4ccccc4)c3)o2)c1` [Example 227, 3-{[5-(1,1′-biphenyl-3-yl)-1,3-oxazol-2-yl]amino}-N-butyl-4-methoxybenzenesulfonamide], the IC50 was less than 1000 nM. Consider `CCN(CC)S(=O)(=O)c1ccc(OC)c(Nc2ncc(-c3cccc(-c4ccccc4)c3)o2)c1` [Example 228, 3-{[5-(1,1′-biphenyl-3-yl)-1,3-oxazol-2-yl]amino}-N,N-diethyl-4-methoxybenzenesulfonamide], for which the IC50 is less than 500 nM.

On to `COc1ccc(S(=O)(=O)NCC2CCCO2)cc1Nc1ncc(-c2cccc(-c3ccccc3)c2)o1` (stereo not shown) [Example 229, 3-{[5-(1,1′-biphenyl-3-yl)-1,3-oxazol-2-yl]amino}-4-methoxy-N-(tetrahydrofuran-2-ylmethyl)benzenesulfonamide], for which the IC50 is less than 1000 nM.
